The numbers were not newly measured in patent EP4692316A1, “MICROCARRIER FOR CELL CULTURE, METHOD FOR PREPARING MICROCARRIER FOR CELL CULTURE, AND CELL CULTURE COMPOSITION USING SAME” (LG Chem, Ltd., priority 2024, dated 2025), which cites them from elsewhere.

SMILES strings stand for the structures.

The conditions of this data set: monomer or oil as supplied.
As a reminder, the density is mass per unit of volume. As to `C=Cc1ccc(C)cc1C` [2,4-Dimethylstyrene], the density was 0.906 g/mL.
As for `C=Cc1ccc(C(C)(C)C)cc1` [4-tert-butyl styrene], the density is 0.875 g/mL.
Turning to `C=Cc1ccc(C)cc1` [methylstyrene], the density was 0.89 to 0.92 g/mL.
`C=Cc1c(C)cc(C)cc1C` [trimethylstyrene]: the density is 0.906 g/mL.
